Source: ChEMBL document CHEMBL3351990, “Jiangrines A-F and jiangolide from an actinobacterium, Jiangella gansuensis” (J Nat Prod, 2014)

Assays:
[1] = test system: RAW264.7; assay: Antiinflammatory activity in mouse RAW264.7 cells assessed as inhibition of LPS-induced NO production at 100 uM incubated for 1 hr prior to LPS-challenge measured after 24 hrs by Greiss assay; format: functional
[2] = test system: RAW264.7; assay: Cytotoxicity against mouse RAW264.7 cells assessed as cell viability at 100 uM; format: cell-based; settings: raw264.7, 100 µM
[3] = test system: RAW264.7; assay: Antiinflammatory activity in mouse RAW264.7 cells assessed as inhibition of LPS-induced NO production incubated for 1 hr prior to LPS-challenge measured after 24 hrs by Greiss assay; format: functional, cell-based

SMILES	IC50 [3]	inhibition at 100 µM [1]	Activity [2]
O=c1[nH]cnc2c1-c1cccn1CC2	–	< 20%	Non-toxic
COC(=O)[C@@H](N)CCCNC(=N)N[N+](=O)[O-] [L-NAME]	53.6 µM	–	–
O=Cc1ccc([C@H](O)[C@H](O)CO)n1CCc1c[nH]c2ccccc12 (relative stereo)	60.7 µM	–	Non-toxic
O=Cc1ccc([C@H](O)[C@H](O)CO)n1CCc1ccc(O)cc1 (relative stereo)	97.8 µM	–	Non-toxic
O=Cc1ccc(CO)n1CCc1ccc(O)cc1	58.8 µM	–	Non-toxic
C[C@H]1/C=C\C[C@H]2[C@@H](CC[C@@H]2O)CC(=O)OC[C@H]2O[C@@H](O1)[C@H](O)[C@@H](O)[C@@H]2O	61.4 µM	–	Non-toxic

Second part, led by results:

IC50 [3]	SMILES	inhibition at 100 µM [1]	Activity [2]
30.1 µM	CO[C@H](c1ccc(C=O)n1CCc1ccc(O)cc1)[C@H](O)CO	–	Non-toxic
30.1 µM	CO[C@@H](c1ccc(C=O)n1CCc1ccc(O)cc1)[C@H](O)CO	–	Non-toxic
54.9 µM	CC(=O)NCCCCCn1cccc1C=O	–	Non-toxic
